IC50 data for nine molecules are collected here from patent US20240246967A1, “AXL COMPOUNDS” (ARCUS BIOSCIENCES, INC., priority 2021, published 2024).

Where only a bound is given, the exact number is not on record here.

As a reminder, the IC50 is the midpoint of a concentration-inhibition curve. A higher IC50 goes with a need for much substance.

In experiment [1] the target is T1, Axl (Homo sapiens, UniProt P30530).
T1 sequence (P30530 26-894): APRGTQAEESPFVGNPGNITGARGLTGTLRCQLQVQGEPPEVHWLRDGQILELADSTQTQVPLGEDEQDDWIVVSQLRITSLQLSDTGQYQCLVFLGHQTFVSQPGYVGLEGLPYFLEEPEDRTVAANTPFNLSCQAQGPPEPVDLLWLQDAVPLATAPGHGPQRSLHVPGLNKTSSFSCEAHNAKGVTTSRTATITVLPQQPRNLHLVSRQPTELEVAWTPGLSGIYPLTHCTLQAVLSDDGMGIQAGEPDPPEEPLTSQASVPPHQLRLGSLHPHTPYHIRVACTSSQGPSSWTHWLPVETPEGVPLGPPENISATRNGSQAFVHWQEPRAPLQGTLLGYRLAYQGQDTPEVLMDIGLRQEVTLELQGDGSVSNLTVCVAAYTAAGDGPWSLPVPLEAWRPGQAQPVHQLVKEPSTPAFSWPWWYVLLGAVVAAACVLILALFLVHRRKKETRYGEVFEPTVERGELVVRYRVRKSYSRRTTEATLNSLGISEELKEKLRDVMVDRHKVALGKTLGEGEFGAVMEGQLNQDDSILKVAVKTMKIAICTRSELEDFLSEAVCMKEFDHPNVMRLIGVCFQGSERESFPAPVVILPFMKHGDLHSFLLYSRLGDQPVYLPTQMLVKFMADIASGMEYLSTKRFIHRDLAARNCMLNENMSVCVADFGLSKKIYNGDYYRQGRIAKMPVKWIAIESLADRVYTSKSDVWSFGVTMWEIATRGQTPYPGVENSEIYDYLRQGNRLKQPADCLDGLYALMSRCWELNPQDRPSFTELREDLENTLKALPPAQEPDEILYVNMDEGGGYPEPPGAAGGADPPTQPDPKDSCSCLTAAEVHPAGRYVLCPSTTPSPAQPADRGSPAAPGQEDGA
Briefly: HTRF KinEASE-TK biochemical potency assay, AXL. Also noted: purchased Invitrogen. The settings on record: 5 nM AXL, 700 μM ATP, 800 nM TK Substrate-biotin. A digest of the protocol:
(§1)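 HTRF 665/620 nm read-out after streptavidin-XL665/anti-phosphotyrosine cryptate detection (1 h RT). Final reaction: 5 nM AXL or 1 nM TYRO3/MER, 800 nM TK substrate-biotin, 700 μM ATP, pH 7.4 HEPES buffer, 1% DMSO, 2 h RT, after 1 h enzyme–compound preincubation.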
For orientation: In TR-FRET formats the signal depends on donor and acceptor labels being close together.

Experiment [2] deals with T2, human MER (Homo sapiens, UniProt Q12866).
T2 construct: purchased Invitrogen
T2 sequence (Q12866 21-999): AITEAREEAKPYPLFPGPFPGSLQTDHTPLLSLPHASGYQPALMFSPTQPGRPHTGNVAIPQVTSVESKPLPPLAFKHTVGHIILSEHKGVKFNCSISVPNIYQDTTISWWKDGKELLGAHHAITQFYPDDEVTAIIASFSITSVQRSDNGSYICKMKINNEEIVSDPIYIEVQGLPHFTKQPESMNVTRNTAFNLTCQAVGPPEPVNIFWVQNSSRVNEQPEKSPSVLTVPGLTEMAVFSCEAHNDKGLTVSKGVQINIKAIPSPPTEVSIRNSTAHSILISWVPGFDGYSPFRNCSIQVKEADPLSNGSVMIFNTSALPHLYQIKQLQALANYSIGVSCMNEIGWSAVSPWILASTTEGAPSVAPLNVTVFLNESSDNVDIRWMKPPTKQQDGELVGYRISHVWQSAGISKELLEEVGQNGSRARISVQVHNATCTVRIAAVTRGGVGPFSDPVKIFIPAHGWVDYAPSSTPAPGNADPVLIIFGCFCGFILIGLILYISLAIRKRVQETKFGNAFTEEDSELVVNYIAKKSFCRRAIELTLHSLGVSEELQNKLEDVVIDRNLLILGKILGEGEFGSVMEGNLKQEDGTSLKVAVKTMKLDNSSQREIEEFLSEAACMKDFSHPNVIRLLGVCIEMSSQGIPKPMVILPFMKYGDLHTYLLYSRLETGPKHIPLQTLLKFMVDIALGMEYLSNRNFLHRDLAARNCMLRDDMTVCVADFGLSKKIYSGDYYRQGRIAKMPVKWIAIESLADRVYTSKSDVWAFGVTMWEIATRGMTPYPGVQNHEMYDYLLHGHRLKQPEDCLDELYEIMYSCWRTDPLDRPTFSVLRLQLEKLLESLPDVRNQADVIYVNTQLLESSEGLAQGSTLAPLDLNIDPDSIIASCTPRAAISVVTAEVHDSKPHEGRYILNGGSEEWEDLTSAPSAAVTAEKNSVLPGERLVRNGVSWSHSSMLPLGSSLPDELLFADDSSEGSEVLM
As to the kind of experiment: HTRF KinEASE-TK biochemical potency assay, MER. The note with it: 1 nM MER, 700 μM ATP, 800 nM TK Substrate-biotin. A digest of the protocol: as §1

As to `C[C@@H]1CCCN1C1(C)CCc2ccc(-c3cnc4[nH]nc(-c5ccc(S(=O)(=O)C6CC6)cc5)c4c3)cc2CC1` (stereo partly drawn) [Example 1, 3-(4-(Cyclopropylsulfonyl)phenyl)-5-(7-methyl-7-((R)-2-methylpyrrolidin-1-yl)-6,7,8,9-tetrahydro-5H-benzo[7]annulen-2-yl)-1H-pyrazolo[3,4-b]pyridine], the values for the IC50 in experiment [1] and in experiment [2] were below 100 nM and 100 to 1000 nM, respectively.

For `CC1(N2CCOCC2)CCc2ccc(-c3cnc4[nH]nc(-c5ccc(S(=O)(=O)C6CC6)cc5)c4c3)cc2CC1` (stereo not drawn) [Example 2, 4-(2-{3-[4-(Cyclopropanesulfonyl)phenyl]-1H-pyrazolo[3,4-b]pyridin-5-yl}-7-methyl-6,7,8,9-tetrahydro-5H-benzo[7]annulen-7-yl)morpholine], the IC50 in experiment [1] and in experiment [2] was above 1000 nM throughout.

For `CC1(N2CCC[C@@H]2CO)CCc2ccc(-c3cnc4[nH]nc(-c5ccc(S(=O)(=O)C6CC6)cc5)c4c3)cc2CC1` (stereo partly drawn) [Example 3, [(2R)-1-(2-{3-[4-(Cyclopropanesulfonyl)phenyl]-1H-pyrazolo[3,4-b]pyridin-5-yl}-7-methyl-6,7,8,9-tetrahydro-5H-benzo[7]annulen-7-yl)pyrrolidin-2-yl]methanol], the IC50 in experiment [1] is below 100 nM; in experiment [2], 100 to 1000 nM.

Turning to `C[C@@H]1CCCN1C1CCc2ccc(-c3cnc4[nH]nc(-c5ccc(C6(O)CCOC6)c(Cl)c5)c4c3)cc2CC1` (stereo partly drawn) [Example 63, 3-[2-Chloro-4-(5-{7-[(2R)-2-methylpyrrolidin-1-yl]-6,7,8,9-tetrahydro-5H-benzo[7]annulen-2-yl}-1H-pyrazolo[3,4-b]pyridin-3-yl)phenyl]oxolan-3-ol], the IC50 was below 100 nM in experiment [1] and 100 to 1000 nM in experiment [2].

Turning to `C[C@@H]1CCCN1C1CCc2ccc(-c3cnc4[nH]nc(-c5ccc(C6(O)COC6)c(Cl)c5)c4c3)cc2CC1` (stereo partly drawn) [Example 64, 3-[2-Chloro-4-(5-{7-[(2R)-2-methylpyrrolidin-1-yl]-6,7,8,9-tetrahydro-5H-benzo[7]annulen-2-yl}-1H-pyrazolo[3,4-b]pyridin-3-yl)phenyl]oxetan-3-ol], the figures for the IC50 in experiment [1] and in experiment [2] were below 100 nM and above 1000 nM, respectively.

With `C[C@@H]1CCCN1C1CCc2ccc(-c3cnc4[nH]nc(-c5cnc(C(C)(C)O)c(Cl)c5)c4c3)cc2CC1` (stereo partly drawn) [Example 65, 2-[3-Chloro-5-(5-{7-[(2R)-2-methylpyrrolidin-1-yl]-6,7,8,9-tetrahydro-5H-benzo[7]annulen-2-yl}-1H-pyrazolo[3,4-b]pyridin-3-yl)pyridin-2-yl]propan-2-ol], the IC50 in experiment [1] was below 100 nM; in experiment [2], 100 to 1000 nM.

For `COC1CCN(C(=O)c2ccc(-c3n[nH]c4ncc(-c5ccc6c(c5)CC[C@@H](N5CCCC5)CC6)cc34)cc2Cl)CC1` [Example 66, (S)-(2-Chloro-4-(5-(7-(pyrrolidin-1-yl)-6,7,8,9-tetrahydro-5H-benzo[7]annulen-2-yl)-1H-pyrazolo[3,4-b]pyridin-3-yl)phenyl)(4-methoxypiperidin-1-yl)methanone], the values for the half-maximal inhibitory concentration (IC50) in experiment [1] and in experiment [2] were below 100 nM and 100 to 1000 nM, respectively.

As for `COC1CCN(C(=O)c2ccc(-c3n[nH]c4ncc(-c5ccc6c(c5)CCC(C)(N5CCC[C@H]5C)CC6)cc34)cc2Cl)CC1` (stereo partly drawn) [Example 67, 1-[2-Chloro-4-(5-{7-methyl-7-[(2R)-2-methylpyrrolidin-1-yl]-6,7,8,9-tetrahydro-5H-benzo[7]annulen-2-yl}-1H-pyrazolo[3,4-b]pyridin-3-yl)benzoyl]-4-methoxypiperidine], the half-inhibitory concentration (IC50) in experiment [1] is below 100 nM; in experiment [2], 100 to 1000 nM.

Regarding `C[C@@H]1CCCN1C1(C)CCc2ccc(-c3cnc4[nH]nc(-c5ccc(C(N)=O)c(Cl)c5)c4c3)cc2CC1` (stereo partly drawn) [Example 68, 2-Chloro-4-(5-{7-methyl-7-[(2R)-2-methylpyrrolidin-1-yl]-6,7,8,9-tetrahydro-5H-benzo[7]annulen-2-yl}-1H-pyrazolo[3,4-b]pyridin-3-yl)benzamide], the IC50 in experiment [1] and in experiment [2] was below 100 nM each time.
